{"source": "paper PMC5036131", "about": "“Fragment-based discovery of a new family of non-peptidic small-molecule cyclophilin inhibitors with potent antiviral activities” (Nature Communications, 2016)", "key": {"[1]": {"molecular_target": "T1, CYP3A4 (Homo sapiens, UniProt P08684)", "T1 construct": "incubated with human hepatic microsomal fractions and NADPH; from tissue; host or cells: human hepatic microsomal fractions", "T1 sequence (P08684 2-503)": "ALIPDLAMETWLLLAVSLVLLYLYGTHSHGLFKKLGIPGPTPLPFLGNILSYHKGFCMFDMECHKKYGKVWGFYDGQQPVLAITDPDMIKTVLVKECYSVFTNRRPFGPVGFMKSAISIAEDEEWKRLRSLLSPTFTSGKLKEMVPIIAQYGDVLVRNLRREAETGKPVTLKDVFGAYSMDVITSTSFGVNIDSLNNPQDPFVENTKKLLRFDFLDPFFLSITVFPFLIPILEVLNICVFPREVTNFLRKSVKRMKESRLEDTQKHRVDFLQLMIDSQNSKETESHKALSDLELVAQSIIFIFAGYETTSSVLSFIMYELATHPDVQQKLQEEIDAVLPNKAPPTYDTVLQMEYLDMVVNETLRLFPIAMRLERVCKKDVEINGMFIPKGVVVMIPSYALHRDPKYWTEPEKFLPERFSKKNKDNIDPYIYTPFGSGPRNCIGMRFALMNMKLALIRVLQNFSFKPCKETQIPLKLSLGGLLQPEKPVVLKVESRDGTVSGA", "assay": "Cytochrome P450 enzyme inhibition assay, CYP3A4", "format": "in vitro ADME", "conditions": "human hepatic microsomal fractions, up to 25 μM", "procedure": "(§1) Up to 25 μM of compounds 29 and 30 was incubated with human hepatic microsomal fractions and NADPH in the presence of individual probe substrates. All assays were designed so that conditions were linear with respect to time and protein concentration. Substrates were present at concentrations equal to or lower than their respective Km values. Enzyme selective products were determined by fluorometry (ethoxyresorufin O-deethylase) or by specific LC-MS/MS assays. Relative enzyme activities were determined by comparison with those assayed with DMSO vehicle instead of inhibitor. IC50 values were calculated by nonlinear curve fitting using a sigmoidal model. Positive control inhibitors for each enzyme were tested in parallel."}, "[2]": {"tested_on": "MT4 cells", "assay": "Cytotoxicity in uninfected MT4 cells", "conditions": "read-out: MT4 cells CC50"}, "[3]": {"molecular_target": "CYP2C19 (Homo sapiens, UniProt P33261)", "sequence (P33261 whole entry)": "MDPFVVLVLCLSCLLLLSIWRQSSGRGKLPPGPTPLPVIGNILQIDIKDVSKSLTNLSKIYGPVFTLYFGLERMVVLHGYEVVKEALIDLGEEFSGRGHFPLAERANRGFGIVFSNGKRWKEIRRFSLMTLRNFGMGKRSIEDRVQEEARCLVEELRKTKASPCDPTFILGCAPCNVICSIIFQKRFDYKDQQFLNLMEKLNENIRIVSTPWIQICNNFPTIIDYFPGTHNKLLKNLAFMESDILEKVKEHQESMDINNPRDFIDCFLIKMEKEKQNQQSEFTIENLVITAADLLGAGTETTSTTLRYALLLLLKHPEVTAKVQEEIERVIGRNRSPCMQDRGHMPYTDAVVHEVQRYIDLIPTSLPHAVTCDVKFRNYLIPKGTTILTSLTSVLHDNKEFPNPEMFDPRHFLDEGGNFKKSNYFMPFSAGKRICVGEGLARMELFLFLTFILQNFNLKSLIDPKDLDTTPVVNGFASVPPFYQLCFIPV", "assay": "Cytochrome P450 enzyme inhibition assay, CYP2C19", "format": "in vitro ADME", "design": "incubated with human hepatic microsomal fractions and NADPH; from tissue; host or cells: human hepatic microsomal fractions", "conditions": "human hepatic microsomal fractions, up to 25 μM", "procedure": "as §1"}, "[4]": {"molecular_target": "T2, CYP2C8 (Homo sapiens, UniProt P10632)", "T2 sequence (P10632 1-490)": "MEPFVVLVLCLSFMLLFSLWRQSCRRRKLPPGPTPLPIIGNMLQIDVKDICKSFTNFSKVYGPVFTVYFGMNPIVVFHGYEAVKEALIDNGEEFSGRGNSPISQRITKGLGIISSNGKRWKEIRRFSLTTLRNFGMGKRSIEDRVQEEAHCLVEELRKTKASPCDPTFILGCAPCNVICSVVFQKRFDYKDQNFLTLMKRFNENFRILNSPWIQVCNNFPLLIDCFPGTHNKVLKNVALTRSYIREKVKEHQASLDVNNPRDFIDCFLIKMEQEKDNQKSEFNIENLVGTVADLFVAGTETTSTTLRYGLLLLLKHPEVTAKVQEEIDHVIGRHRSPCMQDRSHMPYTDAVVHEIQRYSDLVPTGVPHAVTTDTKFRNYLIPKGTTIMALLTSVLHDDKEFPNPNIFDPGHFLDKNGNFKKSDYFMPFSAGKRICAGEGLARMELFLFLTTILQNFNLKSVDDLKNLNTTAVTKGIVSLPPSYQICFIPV", "assay": "Metabolism by recombinant human cytochrome P450, CYP2C8", "format": "in vitro ADME", "conditions": "recombinant enzyme", "procedure": "(§2) […] of compound was incubated with individual bacterially expressed recombinant human cytochromes P450 co-expressed with human NADPH cytochrome P450 reductase. […] Enzyme-selective positive control substrates were tested in parallel."}, "[5]": {"assay": "Kinetic solubility", "format": "physicochemical", "conditions": "target concentration 100 μM, 24 h; for Solubility HCl (pH 1.0): 0.1 N HCl pH 1.0", "procedure": "The solutions were incubated at room temperature with shaking for 24 h and were then centrifuged, and the recovered supernatants assayed by HPLC with diode array ultraviolet/visible detection. Solubility values were calculated by comparing the amount (by chromatographic peak area) of compound detected in the defined test solution with an unextracted standard. Relative chemical stabilities of compounds after 24 h incubation in PBS at 37 °C were also determined. The solubility and chemical stability of a quality-control compound (amprenavir) were determined in parallel."}, "[6]": {"molecular_target": "T3, CYP1A2 (Homo sapiens, UniProt P05177)", "T3 sequence (P05177 1-516)": "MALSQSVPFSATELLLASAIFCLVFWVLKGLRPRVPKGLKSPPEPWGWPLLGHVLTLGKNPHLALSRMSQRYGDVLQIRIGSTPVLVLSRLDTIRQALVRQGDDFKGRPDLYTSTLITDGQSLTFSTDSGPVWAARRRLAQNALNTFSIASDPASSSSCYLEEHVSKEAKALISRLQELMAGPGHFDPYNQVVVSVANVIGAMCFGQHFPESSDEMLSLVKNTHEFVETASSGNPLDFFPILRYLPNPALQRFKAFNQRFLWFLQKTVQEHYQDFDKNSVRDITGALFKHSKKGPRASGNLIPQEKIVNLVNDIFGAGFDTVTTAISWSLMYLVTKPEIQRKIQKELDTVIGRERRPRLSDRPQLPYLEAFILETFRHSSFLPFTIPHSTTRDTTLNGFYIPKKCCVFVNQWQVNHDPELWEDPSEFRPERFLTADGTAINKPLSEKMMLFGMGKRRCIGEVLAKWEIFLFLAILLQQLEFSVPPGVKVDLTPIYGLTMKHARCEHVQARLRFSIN", "assay": "Metabolism by recombinant human cytochrome P450, CYP1A2", "format": "in vitro ADME", "conditions": "recombinant enzyme", "procedure": "as §2"}, "[7]": {"assay": "Human plasma protein binding, equilibrium dialysis", "format": "in vitro ADME", "conditions": "2 μM, 37 °C, 3 h dialysis", "procedure": "The extent of binding to pooled human plasma and to cell culture medium containing 10% fetal bovine serum was determined by equilibrium dialysis against isotonic phosphate buffer. Equilibrium dialysis was conducted at 37 °C with initial concentrations of compounds of 2 μM in the non-buffer matrix. A 3 h dialysis time was used for equilibration. Following dialysis, plasma samples were drained into pre-weighed polypropylene tubes containing buffer and buffer samples were drained into pre-weighed tubes containing blank plasma. Post-dialysis plasma and buffer weights were measured and recorded for concentration and recovery calculations. After precipitation and centrifugation, LC-MS/MS assays were used for the analysis of each of the protein/phosphate buffer-mixed matrices. Relative binding to human plasma and cell culture medium was determined in a similar manner, except that the two matrices were dialysed against each other directly and the compound was spiked into both matrices. After equilibration, the plasma sample was diluted with blank cell culture medium and the cell culture medium diluted with blank plasma."}, "[8]": {"molecular_target": "T4, CypB (Homo sapiens, UniProt P23284)", "T4 construct": "hexahistidine tag (His-Tag) (C); made in house; host or cells: E. coli C41(DE3)", "T4 sequence (P23284 34-216)": "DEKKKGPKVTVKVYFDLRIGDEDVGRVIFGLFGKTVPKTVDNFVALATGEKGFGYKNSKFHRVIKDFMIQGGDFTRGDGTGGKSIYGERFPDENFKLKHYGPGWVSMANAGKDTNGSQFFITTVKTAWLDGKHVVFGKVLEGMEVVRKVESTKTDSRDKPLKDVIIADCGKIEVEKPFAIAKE", "assay": "biochemical", "format": "biochemical", "conditions": "PPIase enzyme assay, 20 °C, mean±s.d.; read-out: CypB IC50", "procedure": "CypA and CypB proteins carrying a hexahistidine tag (His-Tag) at their carboxy terminus were expressed in E. coli and purified. Briefly, cultures of C41(DE3) cells were grown at 37 °C for 1 h until the culture reached an OD of 0.6 at 600 nm and then induced with 1 mM isopropyl-β-D-thiogalactopyranoside for 4 h at 37 °C (CypA) or overnight at 22 °C (CypB). Cell pellets were resuspended in a lysis buffer 20 mM NaH2PO4 pH 7.8, 300 mM NaCl, 7 mM β-mercaptoethanol, 1 mg ml^−1 lysozyme, 0.1 U μl^−1 desoxyribonuclease and complete protease inhibitor tablets (Roche Diagnostics Corporation, Indianapolis, Indiana). […] The bound protein was eluted in 1 ml fractions with a buffer composed of 20 mM NaH2PO4 pH 7.8, 300 mM NaCl, 250 mM imidazole, 7 mM β-mercaptoethanol and 10% glycerol, monitored by the Bradford colorimetric assay. The purity of each cyclophilin was determined by Coomassie-stained SDS–PAGE analysis."}}}
{"smiles": "CSCCC(NC(=O)NCc1ccc(N)cc1)C(=O)N1CCCC1c1ccccc1SC.O=C(O)C(F)(F)F", "note": "(stereo not drawn) [Compound 30]", "values": [{"measurement": "IC50", "setting": "[1]", "result": 600, "unit": "nM"}, {"measurement": "Inhibition of cytochrome P450 activity, IC50 CYP3A4", "setting": "[1]", "result": "potent inhibitors"}, {"measurement": "CC50", "setting": "[2]", "result": "> 53", "unit": "µM"}, {"measurement": "IC50", "setting": "[3]", "result": "> 25", "unit": "µM"}, {"measurement": "Inhibition of cytochrome P450 activity, IC50 CYP2C19", "setting": "[3]", "result": "Neither compound 29 nor compound 30 significantly inhibited"}, {"measurement": "Rate of metabolism by human cytochrome P450 CYP2C8", "setting": "[4]", "result": 0.56, "unit": "pmol/pmol P450/min"}, {"measurement": "Solubility HCl (pH 1.0)", "setting": "[5]", "result": "> 100"}, {"measurement": "Solubility HCl (pH 1.0)", "setting": "[5]; listed as compound 30", "result": "very soluble"}, {"measurement": "Solubility PBS (pH 7.4)", "setting": "[5]", "result": "> 100"}, {"measurement": "Solubility PBS (pH 7.4)", "setting": "[5]; listed as compound 30", "result": "very soluble"}, {"measurement": "Rate of metabolism by human cytochrome P450 CYP1A2", "setting": "[6]", "result": "< 0.12", "unit": "pmol/pmol P450/min"}, {"measurement": "Rate of metabolism by human cytochrome P450 CYP1A2", "setting": "[6]; listed as compound 30", "result": "Neither compound 29 nor compound 30 was metabolized"}, {"measurement": "Human plasma binding Bound", "setting": "[7]", "result": 85.1, "unit": "%"}, {"measurement": "Human plasma binding Unbound", "setting": "[7]", "result": 14.9, "unit": "%"}, {"measurement": "IC50", "setting": "[8]", "result": "1900 ± 1500", "unit": "nM"}]}
